Measured values as given in PMC8196580, “Identification of Kaurane-Type Diterpenes as Inhibitors of Leishmania Pteridine Reductase I” (Molecules, 2021).
Read-outs that look alike come from different tables or passages of the source.

What was measured:
[1] = test system: L. major; test: ChEMBL dataset of pIC50 values against L. major used for the RF model (Table S1); format: cell-based, Leishmania major; also: call rule not given here
[2] = test system: L. major; parameters: method as in ChEMBL; details: ref ChEMBL, cited from earlier work
[3] = Active/Inactive class assigned to ChemBL structures for Random forest model construction (Table S1)
[4] = ChemBL structures with pIC50 values used for Random forest model construction (Table S1)
[5] = Active/Inactive class assigned to the ChEMBL pIC50 value for Random forest model construction, ref ChEMBL
[6] = ChemBL structures with pIC50 values used for Random forest model construction, L. major

Row | Compound | Outcome [1, 3] | pIC50 Value [2, 4] | Outcome [1, 5] | pIC50 Value [2, 6]
1 | Cc1cccc2cc(C3CC(c4ccc(Br)s4)=NN3)c(Cl)nc12 (centres unmarked) [CHEMBL2236133] | Active | 5.64 | – | –
2 | CCCNC(=N)c1ccc(N2CCN(c3nnc(-c4ccc([N+](=O)[O-])o4)s3)CC2)cc1.Cl [CHEMBL1783203] | – | – | Active | 5.00
3 | COc1cccc(-c2nc3ccc([N+](=O)[O-])cc3[nH]2)c1 [CHEMBL2298018] | Active | 5.52 | – | –
4 | c1ccc2c(-c3cnc4n3CCS4)c[nH]c2c1 [CHEMBL1255759] | – | – | Inactive | 4.11
5 | CC1=N[C@H](C)Cc2c(-c3ccc(C(F)(F)F)cc3)ccc(O)c21 [CHEMBL1275619] | – | – | Inactive | 4.00
6 | COc1cc(OC)c2c(C)[n+](-c3cccc4c3C(=O)c3ccccc3C4=O)c(C)cc2c1.F[B-](F)(F)F [CHEMBL474599] | – | – | Inactive | 4.00
7 | O=CN/N=C/c1ccccc1O [CHEMBL1172261] | – | – | Inactive | 3.84
8 | Cc1ccccc1Cn1cc(CNc2nnc(-c3ccc([N+](=O)[O-])o3)s2)nn1 [CHEMBL1951528] | – | – | Inactive | 4.60
9 | Cc1ccc2cc(/C=C/C(=O)c3sccc3C)c(Cl)nc2c1 [CHEMBL1940851] | Active | 5.55 | – | –
10 | NP(=O)(OCc1cccc([N+](=O)[O-])c1)N(CCCl)CCCl (centres unmarked) [CHEMBL1256964] | – | – | Inactive | 4.52
11 | CCOC(=O)C1=C(C)NC(C)=C(C(=O)OC)C1c1cccc([N+](=O)[O-])c1 (centres unmarked) [CHEMBL475534] | – | – | Inactive | 4.48
12 | COc1ccccc1C(=O)N/N=C/c1ccc([N+](=O)[O-])cc1 [CHEMBL2382044] | – | – | Inactive | 4.50
13 | O=C(CCl)Nc1cc(Cl)ccc1Oc1ccccc1 [CHEMBL3759632] | – | – | Inactive | 4.37
14 | c1ccc(-c2nc3ccccn3c2-c2ccncc2)cc1 [CHEMBL2151870] | – | – | Active | 5.19
15 | O=C(/C=C/c1ccc(-n2ccnc2)cc1)c1c(F)cccc1F [CHEMBL570962] | Active | 5.51 | – | –
16 | NP(=O)(OCc1ccc([N+](=O)[O-])cn1)N(CCCl)CCCl (centres unmarked) [CHEMBL2158073] | – | – | Active | 5.08
17 | O=[N+]([O-])c1ccc2nc(-c3ccccn3)[nH]c2c1 [CHEMBL380979] | Active | 5.52 | – | –
18 | Cc1cccc2cc(/C=C/C(=O)c3ccsc3)c(Cl)nc12 [CHEMBL1940861] | Active | 5.71 | – | –
19 | CC(C)=CCC/C(C)=C/CC/C(C)=C/COc1ccc2ccc(=O)oc2c1 [CHEMBL156127] | – | – | Inactive | 4.88
20 | O=[N+]([O-])c1ccc2nc(-c3ccc(F)cc3)[nH]c2c1 [CHEMBL2297902] | Active | 5.52 | – | –
21 | Cc1ccc(-c2nc3ccccc3[nH]2)o1 [CHEMBL2298017] | Active | 5.37 | – | –
22 | Cc1cccc2oc(=O)c3c(c12)O[C@H](C)[C@@]3(C)CC(=O)[C@@H]1OC1(C)C [CHEMBL517042] | – | – | Inactive | 4.87

Row | Compound | Outcome [1, 3] | pIC50 Value [2, 4] | Outcome [1, 5] | pIC50 Value [2, 6]
23 | c1ccc2c(Nc3ccc(NC4CCCCC4)cc3)c3ccccc3nc2c1 [CHEMBL89171] | Active | 6.26 | – | –
24 | CCCN1CSC(=S)N(CC(=O)O)C1 [CHEMBL4282164] | – | – | Inactive | 4.16
25 | c1ccc(-c2nc3ccccn3c2-c2ccccc2)cc1 [CHEMBL1719415] | – | – | Inactive | 4.65
26 | C/C=C/C=C/c1nc2ccccc2n2cccc12 [CHEMBL3260206] | Active | 5.33 | – | –
27 | CN(C)c1ccc(Nc2c3ccc(NC(=O)CCN4CCCC4)cc3nc3cc(NC(=O)CCN4CCCC4)ccc23)cc1 [CHEMBL336434] | – | – | Inactive | 4.90
28 | CSc1ccc(Nc2ncnc3ccc([N+](=O)[O-])cc23)cc1 [CHEMBL3758748] | Active | 5.73 | – | –
29 | NCCNCCc1ccc(Nc2c3ccccc3nc3ccccc23)cc1 [CHEMBL89150] | Active | 6.15 | – | –
30 | O=[N+]([O-])c1ccc(-c2nnc(NCc3cn(Cc4ccccc4)nn3)s2)o1 [CHEMBL1951522] | – | – | Inactive | 4.71
31 | CC(C)(C)C(=O)Oc1ccc(-c2c(-c3ccccc3)nc3ccccn23)cc1 [CHEMBL2151861] | – | – | Active | 5.15
32 | Cc1ccc2cc(/C=C/C(=O)c3cc(C)sc3C)c(Cl)nc2c1 [CHEMBL1940854] | Active | 5.74 | – | –
33 | Fc1ccc(-c2nc3c(NCCN4CCOCC4)nccn3c2-c2ccncc2)cc1 [CHEMBL3634368] | – | – | Inactive | 4.78
34 | c1csc(-c2nc3ccccc3[nH]2)c1 [CHEMBL201221] | Active | 5.51 | – | –
35 | O/N=C1/c2ccccc2OC(c2ccc(Cl)cc2)C1n1ccnc1 (centres unmarked) [CHEMBL4083146] | Active | 6.22 | – | –
36 | COc1ccccc1-c1nnc(-c2ccc(C(=O)N/N=C/c3ccc(O)cc3O)cc2)o1 [CHEMBL4087969] | Active | 5.42 | – | –
37 | Cc1ccc(C2(c3ccc(C)cc3)C(=O)N(c3ccccc3)C2c2cn(C)c3ccccc23)cc1 (centres unmarked) [CHEMBL2071564] | Active | 5.91 | – | –
38 | COc1ccc(-c2nc3ccccc3[nH]2)cc1 [CHEMBL379179] | Active | 5.44 | – | –
39 | COc1cc(OC)c2c(C)[n+](-c3ccc(C#N)cc3)c(C)cc2c1.O=C([O-])C(F)(F)F [CHEMBL481906] | – | – | Inactive | 4.00
40 | CC(C)N1CN(CC(=O)O)CSC1=S [CHEMBL4277354] | – | – | Inactive | 3.86
41 | COc1ccc(CN2CN(CC(=O)O)CSC2=S)cc1OC [CHEMBL4291183] | – | – | Inactive | 4.81
42 | CC1=C(C(=O)/C=C/c2ccc(O)cc2)C(c2ccccc2)NC(=O)N1C (centres unmarked) [CHEMBL3787563] | Active | 5.77 | – | –
43 | O=[N+]([O-])c1ccc(-c2nnc(N3CCN(c4ccccc4)CC3)s2)o1 [CHEMBL448103] | Active | 7.00 | – | –
44 | NP(=O)(OCc1ccc([N+](=O)[O-])cc1)N(CCCl)CCCl (centres unmarked) [CHEMBL144896] | – | – | Inactive | 4.52

Row | Compound | Outcome [1, 3] | pIC50 Value [2, 4] | Outcome [1, 5] | pIC50 Value [2, 6]
45 | C/C=C/c1cc(OC)c(OC)c(O)c1OC [CHEMBL501754] | – | – | Inactive | 3.41
46 | CC1=N[C@H](C)Cc2c(-c3ccc4ccccc4c3)ccc(O)c21 [CHEMBL1276918] | – | – | Inactive | 4.46
47 | COc1cccc2cc(C=O)cc(O)c12 [CHEMBL2071232] | – | – | Inactive | 4.00
48 | O=C(c1ccccc1Cl)N1CCN(c2nnc(-c3ccc([N+](=O)[O-])s3)s2)CC1 [CHEMBL458772] | – | – | Inactive | 4.46
49 | C[C@@H]1C[C@@]2(O[C@H]3C[C@@]4(C)[C@@H]5C[C@H](O)[C@H]6C(C)(C)[C@@H](O[C@@H]7OC[C@@H](O)[C@@H](O)[C@H]7O)CC[C@@]67C[C@@]57CC[C@]4(C)[C@@H]13)O[C@H](O)[C@]1(C)C[C@H]21 [CHEMBL501026] | – | – | Inactive | 4.19
50 | NP(=O)(OCc1ccc([N+](=O)[O-])cc1Cl)N(CCCl)CCCl (centres unmarked) [CHEMBL1257017] | Active | 5.51 | – | –
51 | O=C(CCl)N1c2ccccc2C=Cc2ccccc21 [CHEMBL3758271] | – | – | Inactive | 4.32
52 | CC(=O)N1CCN(c2ccc(OC[C@H]3CO[C@](Cn4ccnc4)(c4ccc(Cl)cc4Cl)O3)cc2)CC1 (racemic) [CHEMBL75] | – | – | Inactive | 4.62
53 | COC(=O)C1=C(C)NC(C)=C(C(=O)OC(C)(C)CN(C)CCC(c2ccccc2)c2ccccc2)C1c1cccc([N+](=O)[O-])c1 (centres unmarked) [CHEMBL250270] | – | – | Inactive | 4.94
54 | CC(=O)C1=C(C)NC(=O)NC1c1cccc(C)c1 (centres unmarked) [CHEMBL3786214] | Active | 5.44 | – | –
55 | Cc1ccc2c(n1)[nH]c1ccccc12 [CHEMBL1255761] | – | – | Inactive | 4.01
56 | CC(C)N1CSC(=S)N(C(C)c2ccccc2)C1 (centres unmarked) [CHEMBL4283106] | – | – | Inactive | 4.67
57 | C/C(=N/NC(N)=S)c1ccc(OCc2cn(-c3ccc(S(N)(=O)=O)cc3)nn2)cc1 [CHEMBL4177394] | – | – | Active | 5.08
58 | COc1ccc(/C=N\NC(N)=S)cc1OCc1cn(CC(=O)c2ccc(Cl)cc2)nn1 [CHEMBL4163696] | Active | 5.77 | – | –
59 | COc1ccc(-c2ccc3ccccc3c2)c2c1C(C)=N[C@H](C)C2 [CHEMBL1276917] | – | – | Inactive | 4.55
60 | Cc1cccc2cc(C3CC(c4ccsc4)=NN3)c(Cl)nc12 (centres unmarked) [CHEMBL2235717] | Active | 5.69 | – | –
61 | CCOc1cc(NC(=N)c2ccccn2)ccc1-c1ccc(-c2ccc(NC(=N)c3ccccn3)cc2OCC)o1 [CHEMBL1276549] | Active | 7.59 | – | –
62 | CN(C)c1nccn2c(-c3ccncc3)c(-c3ccccc3)nc12 [CHEMBL3634364] | – | – | Inactive | 4.50
63 | C[C@@H]([C@H]1CC[C@H]2[C@@H]3CC[C@H]4C(=O)C(NC=O)=CC[C@]4(C)[C@H]3CC[C@]12C)N(C)C [CHEMBL496489] | – | – | Inactive | 4.65
64 | O=[N+]([O-])c1cn2c(n1)OC[C@H](Oc1ccc(OC(F)(F)F)cc1)C2 [CHEMBL4078293] | Active | 5.63 | – | –
